Our source for the IC50 values is patent US20250136576A1, “Heterocyclic Compounds and Uses Thereof” (ACEA Therapeutics, Inc., priority 2021, published 2025).

Molecules are shown by their SMILES.

The test system of the first assay is KM12-luc cells. As to the kind of experiment: Cell proliferation and growth inhibition assay (CCK-8) in KM12-luc. The settings on record: KM12-Luc, 72 h, KM12-luc cells, treated with test compounds for 72 hrs, CCK-8 viability; read-out: NTRK IC50 in KM12-luc. The assay is classed as cell-based. The procedure, abridged:
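Cells were grown at 37 °C, 5% CO2 with 10% FBS: MV-4-11 in IMDM, H1975 in RPMI 1640, KM12-luc in DMEM. Viability was read by CCK-8 (1-4 hrs reagent incubation, absorbance at OD450). IC50 came from a non-linear sigmoidal dose-response fit.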
For `CC(=O)Nc1cc(Nc2ncc(Cl)c(-c3cn(C)c4ccccc34)n2)ccc1N(C)C(=O)CN(C)C` [Compound 403, N-(2-acetamido-4-((5-chloro-4-(1-methyl-1H-indol-3-yl)pyrimidin-2-yl)amino)phenyl)-2-(dimethylamino)-N-methylacetamide], the IC50 (usually the concentration that gives 50% inhibition) stood at 46.5 nM.
As to `COc1cnc(Nc2ccc(N(C)CCN(C)C)c(NC(C)=O)c2)nc1-c1cn(C)c2cccc(F)c12` [Compound 277, N-(2-((2-(dimethylamino)ethyl)(methyl)amino)-5-((4-(4-fluoro-1-methyl-1H-indol-3-yl)-5-methoxypyrimidin-2-yl)amino)phenyl)acetamide], the concentration for half-maximal inhibition (IC50) was determined as 368 nM.
For `CC(=O)Nc1cc(Nc2ncc(C(F)(F)F)c(-c3c[nH]c4ccc(F)cc34)n2)ccc1N(C)CCN(C)C` [Compound 321, N-(2-((2-(dimethylamino)ethyl)(methyl)amino)-5-((4-(5-fluoro-1H-indol-3-yl)-5-(trifluoromethyl)pyrimidin-2-yl)amino)phenyl)acetamide], the IC50 stood at 14.8 nM.
Still for that read-out and setting: then `CCN(CCN(C)C)c1ccc(Nc2ncc(C(F)(F)F)c(-c3c[nH]c4ccc(F)cc34)n2)cc1N` [Compound 324, N^1-(2-(dimethylamino)ethyl)-N^1-ethyl-N^4-(4-(5-fluoro-1H-indol-3-yl)-5-(trifluoromethyl)pyrimidin-2-yl)benzene-1,2,4-triamine], with 17.5 nM.
Still for that read-out and setting: then `COc1cccc2c(-c3nc(Nc4ccc(N5CC[C@H](N(C)C)C5)c(N)c4)ncc3C(F)(F)F)cn(C)c12` [Compound S-390, (S)-4-(3-(dimethylamino)pyrrolidin-1-yl)-N^1-(4-(7-methoxy-1-methyl-1H-indol-3-yl)-5-(trifluoromethyl)pyrimidin-2-yl)benzene-1,3-diamine], with 44.6 nM.
The same measure, in the same setting: then `CCC(=O)Nc1cccc(Nc2ncc(Cl)c(Nc3ccc(N4CCNCC4)cc3OC)n2)c1` [Compound 160, N-(3-((5-chloro-4-((2-methoxy-4-(piperazin-1-yl)phenyl)amino)pyrimidin-2-yl)amino)phenyl)propionamide], with 210 nM; and `COc1ccc2c(c1)c(-c1nc(Nc3ccc(N(C)CCN(C)C)c(NC(C)=O)c3)ncc1C(F)(F)F)cn2C` [Compound 357, N-(2-((2-(dimethylamino)ethyl)(methyl)amino)-5-((4-(5-methoxy-1-methyl-1H-indol-3-yl) 5-(trifluoromethyl)pyrimidin-2-yl)amino)phenyl)acetamide], with 1080 nM.
As to `CN1CCN(c2ccc(C(=O)Nc3c[nH]c4ccc(Cc5cc(F)cc(F)c5)cc34)c(NC3CCOCC3)c2)CC1` [Compound 505, N-(5-(3,5-difluorobenzyl)-1H-indol-3-yl)-4-(4-methylpiperazin-1-yl)-2-((tetrahydro-2H-pyran-4-yl)amino)benzamide], the IC50 was over 1000 nM.
As to `COCCCN(C)c1cc(N2CCN(C)CC2)ccc1C(=O)Nc1c[nH]c2ccc(Cc3cc(F)cc(F)c3)cc12` [Compound 508, N-(5-(3,5-difluorobenzyl)-1H-indol-3-yl)-2-((3-methoxypropyl)(methyl)amino)-4-(4-methylpiperazin-1-yl)benzamide], the IC50 is over 1000 nM.
On the same count and under the same terms, as for `CN(C)CCN(C)c1ccc(Nc2ncc(C(F)(F)F)c(-c3c[nH]c4cc(F)ccc34)n2)cc1N` [Compound 329, N^1-(2-(dimethylamino)ethyl)-N^4-(4-(6-fluoro-1H-indol-3-yl)-5-(trifluoromethyl)pyrimidin-2-yl)-N^1-methylbenzene-1,2,4-triamine], the figure is 72.1 nM; as for `CCN(CCN(C)C)c1ccc(Nc2ncc(C(F)(F)F)c(-c3cn(C)c4ccccc34)n2)cc1N` [Compound 310, N^1-(2-(dimethylamino)ethyl)-N^1-ethyl-N^4-(4-(1-methyl-1H-indol-3-yl)-5-(trifluoromethyl)pyrimidin-2-yl)benzene-1,2,4-triamine], 305 nM; as for `CCN(CCN(C)C)c1c(F)cc(Nc2ncc(Cl)c(-c3c[nH]c4ccccc34)n2)cc1NC(C)=O` [Compound 443, N-(5-((5-chloro-4-(1H-indol-3-yl)pyrimidin-2-yl)amino)-2-((2-(dimethylamino)ethyl) (ethyl)amino)-3-fluorophenyl)acetamide], 33.3 nM.
Same read-out and setting: as for `COc1cnc(Nc2ccc(N3CC[C@@H](N(C)C)C3)c(NC(C)=O)c2)nc1-c1c[nH]c2c(OC)cccc12` [Compound R-288, (R)—N-(2-(3-(dimethylamino)pyrrolidin-1-yl)-5-((5-methoxy-4-(7-methoxy-1H-indol-3-yl)pyrimidin-2-yl)amino)phenyl)acetamide], the figure is 15.5 nM; as for `CNc1cc(Nc2ncc(OC)c(-c3cn(C)nc3C)n2)ccc1N(C)CCN(C)C` [Compound 290, N^4-(4-(1,3-dimethyl-1H-pyrazol-4-yl)-5-methoxypyrimidin-2-yl)-N1-(2-(dimethylamino)ethyl)-N^1,N^2-dimethylbenzene-1,2,4-triamine], over 10000 nM.
Turning to `CN(C)CCN(C)c1cc(F)c(Nc2ncc(C(F)(F)F)c(-c3c[nH]c4c(F)cccc34)n2)cc1N` [Compound 339, N^1-(2-(dimethylamino)ethyl)-5-fluoro-N^4-(4-(7-fluoro-1H-indol-3-yl)-5-(trifluoromethyl)pyrimidin-2-yl)-N^1-methylbenzene-1,2,4-triamine], the 50% inhibitory concentration (IC50) came to 75.2 nM.
Regarding `COc1cnc(Nc2ccc(N3CC[C@@H](N(C)C)C3)c(NC(C)=O)c2)nc1-c1cn(C)c2c(F)cccc12` [Compound R-281, (R)—N-(2-(3-(dimethylamino)pyrrolidin-1-yl)-5-((4-(7-fluoro-1-methyl-1H-indol-3-yl)-5-methoxypyrimidin-2-yl)amino)phenyl)acetamide], the IC50 was 121 nM.
With `CNc1cc(Nc2ncc(F)c(-c3cn(C)c4ccccc34)n2)ccc1N(C)CCN(C)C` [Compound 263, N^1-(2-(dimethylamino)ethyl)-N^4-(5-fluoro-4-(1-methyl-1H-indol-3-yl)pyrimidin-2-yl)-N^1,N^2-dimethylbenzene-1,2,4-triamine], the IC50 is 704 nM.
In the case of `CCn1cc(-c2nc(Nc3ccc(N(C)CCN(C)C)c(NC(C)=O)c3)nc3[nH]ccc23)c2cc(F)ccc21` [Compound 246, N-(2-((2-(dimethylamino)ethyl)(methyl)amino)-5-((4-(1-ethyl-5-fluoro-1H-indol-3-yl)-7H-pyrrolo[2,3-d]pyrimidin-2-yl)amino)phenyl)acetamide], the IC50 was 69.9 nM.
Consider `CCN(CCN(C)C)c1ccc(Nc2ncc(C(F)(F)F)c(-c3cn(C)c4c(F)cccc34)n2)cc1N` [Compound 349, N^1-(2-(dimethylamino)ethyl)-N^1-ethyl-N^4-(4-(7-fluoro-1-methyl-1H-indol-3-yl)-5-(trifluoromethyl)pyrimidin-2-yl)benzene-1,2,4-triamine], for which the IC50 worked out at 245 nM.
The same measure, in the same setting: then `CNc1cc(Nc2ncc(OC)c(-c3cn(-c4ncc(OC)c(-c5c[nH]c6ccccc56)n4)c4ccccc34)n2)ccc1N(C)CCN(C)C` [Compound 273b, N^4-(4-(1-(4-(1H-indol-3-yl)-5-methoxypyrimidin-2-yl)-1H-indol-3-yl)-5-methoxypyrimidin-2-yl)-N^1-(2-(dimethylamino)ethyl)-N^1,N^2-dimethylbenzene-1,2,4-triamine], with 3320 nM.
Still for that read-out and setting: then `CN(C)[C@@H]1CCN(c2ccc(Nc3ncc(C(F)(F)F)c(-c4cn(C)c5c(F)cccc45)n3)cc2N)C1` [Compound R-354, (R)-4-(3-(dimethylamino)pyrrolidin-1-yl)-N^1-(4-(7-fluoro-1-methyl-1H-indol-3-yl)-5-(trifluoromethyl)pyrimidin-2-yl)benzene-1,3-diamine], with 69.1 nM.
As for `CC(=O)Nc1cc(Nc2nc3c(c(-c4cn(C)c5ccccc45)n2)CCO3)ccc1N(C)CCN(C)C` [Compound 258a, N-(2-((2-(dimethylamino)ethyl)(methyl)amino)-5-((4-(1-methyl-1H-indol-3-yl)-5,6-dihydrofuro[2,3-d]pyrimidin-2-yl)amino)phenyl)acetamide], the IC50 was over 1000 nM.
With `CN(C)CCN(C)c1ccc(Nc2nc(-c3cn(C)c4ccccc34)c3cc[nH]c3n2)cc1NCC(F)(F)F` [Compound 194, N^1-(2-(dimethylamino)ethyl)-N^1-methyl-N^4-(4-(1-methyl-1H-indol-3-yl)-7H-pyrrolo[2,3-d]pyrimidin-2-yl)-N^2-(2,2,2-trifluoroethyl)benzene-1,2,4-triamine], the IC50 was determined as 722 nM.
Regarding `CC(=O)Nc1cc(Nc2ncc(C(F)(F)F)c(-c3c[nH]c4ccccc34)n2)cc(F)c1N(C)CCN(C)C` [Compound 299a, N-(5-((4-(1H-indol-3-yl)-5-(trifluoromethyl)pyrimidin-2-yl)amino)-2-((2-(dimethylamino)ethyl)(methyl)amino)-3-fluorophenyl)acetamide], the IC50 was determined as 48.1 nM.

The same assay, now with this note: KM12-Luc, 72 h, read-out: NTRK IC50 in KM12-luc.
Regarding `CCNc1cc(Nc2nc(-c3cn(C)c4ccccc34)c3cc[nH]c3n2)ccc1N(C)CCN(C)C` [Compound 205b, N^1-(2-(dimethylamino)ethyl)-N^2-ethyl-N1-methyl-N^4-(4-(1-methyl-1H-indol-3-yl)-7H-pyrrolo[2,3-d]pyrimidin-2-yl)benzene-1,2,4-triamine], the IC50 worked out at 304 nM.

The same assay, now with this note: KM12-luc cells, treated with test compounds for 72 hrs, CCK-8 viability; read-out: NTRK IC50 in KM12-luc.
For the molecule `Cc1cccc2c(-c3nc(Nc4ccc(N5CC[C@H](N(C)C)C5)c(N)c4)ncc3Cl)cn(C)c12` [Compound S-431, (S)—N-(5-chloro-4-(1,7-dimethyl-1H-indol-3-yl)pyrimidin-2-yl)-4-(3-(dimethylamino)pyrrolidin-1-yl)benzene-1,3-diamine], the IC50 is 39.6 nM.
For `COc1cccc2c(-c3nc(Nc4ccc(N5CC[C@@H](N(C)C)C5)c(N)c4)ncc3Cl)cn(C)c12` [Compound R-420, (R)—N^1-(5-chloro-4-(7-methoxy-1-methyl-1H-indol-3-yl)pyrimidin-2-yl)-4-(3-(dimethylamino)pyrrolidin-1-yl)benzene-1,3-diamine], the IC50 was found to be 72 nM.
